Values after ≈ are worked out from the molar mass of the structure shown. Like-named read-outs stand apart in the source and are kept apart here.
Tests used:
E. coli = assay: MIC in brain heart infusion (BHI) broth; format: cell-based; conditions: Escherichia coli
Staph. epi = assay: MIC in brain heart infusion (BHI) broth; format: cell-based; conditions: strain 111
Source text: (§1) Generally twelve 2 fold dilutions of the test compound. are employed, with initial concentration of the test drug being in the range of 50 to 200 mcg/ml. The susceptibility (MIC) of the test organism is accepted as the lowest concentration of compound capable of producing complete inhibition of growth as judged by the naked eye.

Staph. aur. = assay: MIC in brain heart infusion (BHI) broth; format: cell-based
Source text: as §1

Strep. faec. = assay: MIC in brain heart infusion (BHI) broth; format: cell-based; conditions: strain 006
Source text: as §1

Kleb. oxy. = assay: MIC in brain heart infusion (BHI) broth; format: cell-based; conditions: strain 024
Source text: as §1

Strep. pyog. = assay: MIC in brain heart infusion (BHI) broth; format: cell-based; conditions: strain 203
Source text: as §1

Past. mult. = assay: MIC in brain heart infusion (BHI) broth; format: cell-based; conditions: strain 001
Source text: as §1

Ent. cloac. = assay: MIC in brain heart infusion (BHI) broth; format: cell-based; conditions: strain 009
Source text: as §1

Prov. strua. = assay: MIC in brain heart infusion (BHI) broth; format: cell-based; conditions: strain 013
Source text: as §1

H. influ. = assay: MIC in brain heart infusion (BHI) broth; format: cell-based
Source text: as §1

Kleb. pn. = assay: MIC in brain heart infusion (BHI) broth; format: cell-based; conditions: for MIC: strain 009
[1] = Microbiological (bioassay) determination of serum levels after oral dosage; format: in vivo; conditions: mice
Method: Additionally, the compounds (II) and (VI) are tested in vivo by the well-known mouse protection test, or by a microbiological (bioassay) determination of serum levels in a variety of mammals (e.g., mouse, rat, dog).

Serr. mar. = assay: MIC in brain heart infusion (BHI) broth; format: cell-based; conditions: strain 017
Source text: as §1

Ent. aerog. = assay: MIC in brain heart infusion (BHI) broth; format: cell-based; conditions: strain 040
Neiss. sic. = assay: MIC in brain heart infusion (BHI) broth; format: cell-based; conditions: strain 000
Source text: as §1

[2] = strain 036, read-out: MIC Values
[3] = strain 038, read-out: MIC Values
[4] = strain 042, read-out: MIC Values
[5] = strain 051, read-out: MIC Values
[6] = strain 073, read-out: MIC Values
[7] = strain 078, read-out: MIC Values
[8] = strain 081, read-out: MIC Values

Work on `CC[C@H]1OC(=O)[C@H](C)[C@@H](O[C@H]2C[C@@](C)(OC)[C@@H](O)[C@H](C)O2)[C@H](C)[C@@H](O[C@@H]2O[C@H](C)C[C@H](N(C)C)[C@H]2O)[C@](C)(O)C[C@@H](C)CN(C)[C@H](C)[C@@H](O)[C@]1(C)O` [(2), 9-Deoxo-9a-methyl-9a-aza-9a-homoerythromycin A] yielded an MIC (E. coli; strain 129) of 6.25 µg/mL (≈ 8.34 µM), an MIC (E. coli; strain 266) of 6.25 µg/mL (≈ 8.34 µM) and an MIC (E. coli; strain 470) of 0.78 µg/mL (≈ 1.04 µM). For the same compound, the MIC (Staph. epi) was 0.1 µg/mL (≈ 0.134 µM), the MIC (Staph. aur.; strain 005) was 0.2 µg/mL (≈ 0.267 µM) and the MIC (Staph. aur.; strain 052) was 0.39 µg/mL (≈ 0.521 µM). For the same compound, the MIC (Staph. aur.; strain 400) was 25 µg/mL (≈ 33.4 µM), the MIC (Strep. faec.) was 1.56 µg/mL (≈ 2.08 µM) and the MIC (Kleb. oxy.) was 25 µg/mL (≈ 33.4 µM). For the same compound, the MIC (Strep. pyog.) was 0.025 µg/mL (≈ 0.0334 µM), the MIC (Past. mult.) was 0.1 µg/mL (≈ 0.134 µM) and the MIC (Ent. cloac.) was 25 µg/mL (≈ 33.4 µM). The MIC (Prov. strua.) was 50 µg/mL (≈ 66.8 µM), the MIC (H. influ.; [2]) was 0.78 µg/mL (≈ 1.04 µM) and the MIC (H. influ.; [3]) was 0.78 µg/mL (≈ 1.04 µM). For the same compound, the MIC (H. influ.; [4]) was 0.78 µg/mL (≈ 1.04 µM), the MIC (H. influ.; [5]) was 1.56 µg/mL (≈ 2.08 µM) and the MIC (H. influ.; [6]) was 0.78 µg/mL (≈ 1.04 µM). It also gave an MIC (H. influ.; [7]) of 0.39 µg/mL (≈ 0.521 µM) and an MIC (H. influ.; [8]) of 0.78 µg/mL (≈ 1.04 µM).
With `CC[C@H]1OC(=O)[C@H](C)[C@@H](O[C@H]2C[C@@](C)(OC)[C@@H](O)[C@H](C)O2)[C@H](C)[C@@H](O[C@@H]2O[C@H](C)C[C@H](N(C)C)[C@H]2O)[C@](C)(O)C[C@@H](C)CN(C)[C@H](C)[C@@H](O)[C@H]1C` [compound (II), 9-Deoxo-9a-methyl-9a-aza-9a-homoerythromycin B] the MIC (Kleb. pn.) was 50 µg/mL (≈ 68.2 µM), the “MIC Values” (Kleb. pn.; strain 031) was 50 µg/mL (≈ 68.2 µM) and the “absorption after oral dosage” value [1] was “exceptionally well absorbed”. The serum levels [1] was “exceptionally high and long lasting”, the MIC (E. coli; strain 125) was 50 µg/mL (≈ 68.2 µM) and the MIC (E. coli; strain 129) was 25 µg/mL (≈ 34.1 µM). For the same compound, the MIC (E. coli; strain 266) was 25 µg/mL (≈ 34.1 µM), the MIC (E. coli; strain 470) was 0.39 µg/mL (≈ 0.532 µM) and the MIC (Staph. epi) was 0.2 µg/mL (≈ 0.273 µM). For the same compound, the MIC (Staph. aur.; strain 005) was 0.39 µg/mL (≈ 0.532 µM), the MIC (Staph. aur.; strain 052) was 0.39 µg/mL (≈ 0.532 µM) and the MIC (Staph. aur.; strain 400) was greater than 50 µg/mL. For the same compound, the MIC (Strep. faec.) was 1.56 µg/mL (≈ 2.13 µM), the MIC (Kleb. oxy.) was 50 µg/mL (≈ 68.2 µM) and the MIC (Strep. pyog.) was 0.025 µg/mL (≈ 0.0341 µM). It also gave an MIC (Serr. mar.) greater than 50 µg/mL, an MIC (Past. mult.) of 0.1 µg/mL (≈ 0.136 µM) and an MIC (Ent. cloac.) greater than 50 µg/mL. It also gave an MIC (Prov. strua.) greater than 50 µg/mL, an MIC (H. influ.; strain 012, read-out: MIC Values) of 1.56 µg/mL (≈ 2.13 µM) and an MIC (H. influ.; [2]) of 3.12 µg/mL (≈ 4.26 µM). For the same compound, the MIC (H. influ.; [3]) was 3.12 µg/mL (≈ 4.26 µM), the MIC (H. influ.; [4]) was 1.56 µg/mL (≈ 2.13 µM) and the MIC (H. influ.; [5]) was 3.12 µg/mL (≈ 4.26 µM). For the same compound, the MIC (H. influ.; [6]) was 0.2 µg/mL (≈ 0.273 µM), the MIC (H. influ.; [7]) was 0.78 µg/mL (≈ 1.06 µM) and the MIC (H. influ.; [8]) was 1.56 µg/mL (≈ 2.13 µM). For the same compound, the MIC (Ent. aerog.) was greater than 50 µg/mL.
With `CC[C@H]1OC(=O)[C@H](C)[C@@H](O[C@H]2C[C@@](C)(OC)[C@@H](O)[C@H](C)O2)[C@H](C)[C@@H](O[C@@H]2O[C@H](C)C[C@H](N(C)C)[C@H]2O)[C@](C)(O)C[C@@H](C)C(=O)[C@H](C)[C@@H](O)[C@]1(C)O` [(1), Erythromycin A] the MIC (Kleb. pn.) was greater than 50 µg/mL, the MIC (E. coli; strain 125) was greater than 50 µg/mL and the MIC (E. coli; strain 129) was greater than 50 µg/mL. It also gave an MIC (E. coli; strain 266) greater than 50 µg/mL, an MIC (E. coli; strain 470) of 1.56 µg/mL (≈ 2.13 µM) and an MIC (Staph. epi) of 0.05 µg/mL (≈ 0.0681 µM). The MIC (Staph. aur.; strain 005) was 0.05 µg/mL (≈ 0.0681 µM), the MIC (Staph. aur.; strain 052) was 0.1 µg/mL (≈ 0.136 µM) and the MIC (Staph. aur.; strain 400) was 6.25 µg/mL (≈ 8.52 µM). The MIC (Neiss. sic.) was 3.12 µg/mL (≈ 4.25 µM), the MIC (Strep. faec.) was 0.39 µg/mL (≈ 0.531 µM) and the MIC (Kleb. oxy.) was greater than 50 µg/mL. For the same compound, the MIC (Strep. pyog.) was 0.025 µg/mL (≈ 0.0341 µM), the MIC (Serr. mar.) was greater than 50 µg/mL and the MIC (Past. mult.) was 0.78 µg/mL (≈ 1.06 µM). The MIC (Ent. cloac.) was greater than 50 µg/mL, the MIC (Prov. strua.) was greater than 50 µg/mL and the MIC (H. influ.; read-out: MIC Values, strain 012) was 3.12 µg/mL (≈ 4.25 µM). It also gave an MIC (H. influ.; read-out: MIC Values, strain 036) of 3.12 µg/mL (≈ 4.25 µM), an MIC (H. influ.; read-out: MIC Values, strain 038) of 1.56 µg/mL (≈ 2.13 µM) and an MIC (H. influ.; read-out: MIC Values, strain 042) of 3.12 µg/mL (≈ 4.25 µM). For the same compound, the MIC (H. influ.; read-out: MIC Values, strain 051) was 3.12 µg/mL (≈ 4.25 µM), the MIC (H. influ.; read-out: MIC Values, strain 073) was 3.12 µg/mL (≈ 4.25 µM) and the MIC (H. influ.; read-out: MIC Values, strain 078) was 1.56 µg/mL (≈ 2.13 µM). It also gave an MIC (H. influ.; read-out: MIC Values, strain 081) of 3.12 µg/mL (≈ 4.25 µM) and an MIC (Ent. aerog.) greater than 50 µg/mL.

— EP0136831A2, “Azahomoerythromycin B derivatives and intermediates thereof” (PFIZER INC., priority 1983, dated 1985)
